One may read the IC50 as the point on the concentration scale where inhibition reaches its midpoint.

Molecules are shown by their SMILES.

For this assay, the target named is T1, EGFR TMLRCS (Homo sapiens, UniProt P00533, C797S/L858R/T790M).
T1 construct: host or cells: BaF3-TMLRCS (Ba/F3 cells, kept under puromycin selection)
T1 sequence (P00533 25-1210 T790M/C797S/L858R): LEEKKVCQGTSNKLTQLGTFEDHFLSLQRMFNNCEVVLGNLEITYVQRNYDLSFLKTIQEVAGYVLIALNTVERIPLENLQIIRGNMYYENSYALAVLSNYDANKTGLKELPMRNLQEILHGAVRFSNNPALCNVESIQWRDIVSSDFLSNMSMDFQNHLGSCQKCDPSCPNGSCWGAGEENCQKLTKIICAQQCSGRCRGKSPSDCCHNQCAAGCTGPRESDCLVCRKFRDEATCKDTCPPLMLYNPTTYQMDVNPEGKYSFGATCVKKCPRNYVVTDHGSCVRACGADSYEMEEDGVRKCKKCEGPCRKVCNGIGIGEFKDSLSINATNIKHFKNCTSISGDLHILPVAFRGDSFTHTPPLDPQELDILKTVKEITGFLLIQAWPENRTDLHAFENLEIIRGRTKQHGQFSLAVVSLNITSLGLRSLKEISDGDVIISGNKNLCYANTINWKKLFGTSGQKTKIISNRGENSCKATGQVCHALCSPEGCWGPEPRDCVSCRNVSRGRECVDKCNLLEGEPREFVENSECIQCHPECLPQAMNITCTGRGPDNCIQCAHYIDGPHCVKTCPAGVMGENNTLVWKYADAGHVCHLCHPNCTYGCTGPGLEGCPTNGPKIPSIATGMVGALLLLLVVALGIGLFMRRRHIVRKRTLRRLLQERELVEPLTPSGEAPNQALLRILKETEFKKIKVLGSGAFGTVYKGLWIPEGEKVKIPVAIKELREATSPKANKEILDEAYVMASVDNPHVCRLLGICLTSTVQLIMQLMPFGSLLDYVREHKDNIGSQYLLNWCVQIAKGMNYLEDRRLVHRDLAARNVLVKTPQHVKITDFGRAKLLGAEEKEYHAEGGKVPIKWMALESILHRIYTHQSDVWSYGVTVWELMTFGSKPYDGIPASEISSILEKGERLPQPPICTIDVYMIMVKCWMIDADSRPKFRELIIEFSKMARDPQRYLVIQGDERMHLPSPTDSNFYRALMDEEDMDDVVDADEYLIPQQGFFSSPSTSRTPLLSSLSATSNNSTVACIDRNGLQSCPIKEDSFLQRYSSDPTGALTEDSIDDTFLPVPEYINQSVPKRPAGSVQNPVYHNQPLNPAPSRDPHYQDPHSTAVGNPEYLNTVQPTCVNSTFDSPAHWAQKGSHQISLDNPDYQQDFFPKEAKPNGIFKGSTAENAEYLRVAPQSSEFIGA
The assay can be described thus: HTRF Phospho EGFR TMLRCS Assay (Cellular). Type of assay: cell-based. The settings on record: BaF3-TMLRCS cell line, 4 hours incubation, Phospho-EGFR HTRF readout. As for the experimental part:
HTRF Phospho EGFR TMLRCS Assay (Cellular)
BaF3-TMLRCS cell line were obtained from Crownbio (San Diego, CA, USA). Cells were maintained at 37° C., 5% CO2 in RPMI ATCC (Gibco 31870)+2 mM Glutamine+0.5 μg/ml Puromycin supplemented with 10% fetal bovine serum (FBS) (Gibco).
Cells are transferred as above to Greiner Bio-One, Nr. 784-08 micro-titerplate at 20000 cells/well in 12.5 μl of growth medium/well after the plates had been pre-filled with 12.5 nl of DMSO solutions of the to be tested compounds (in dose response) or DMSO only. After spinning the plates at 300×g for 30 seconds the cells were incubated for 4 hours at 37 C, 5% CO2, 95% humidity. The cells were lysed by adding to the compound mix 4 μl/well of the supplemented lysis buffer (Cis-bio, Phospho-EGFR HTRF kit, 64EG1PEH), followed by incubation for 30 min at room temperature with shaking (400 rpm). The plates were then frozen and stored overnight at −80 C. On the next day and after thawing the plates, 4 μl of a mixture of anti-Phospho-EGFR Cryptate and of anti-Phospho-EGFR-d2 antibody solutions prepared in the supplied detection buffer was added to each well. The lidded plates were then incubated for 4 h at room temperature before reading the fluorescence emission at 616 and 665 nm using an Envision reader (Perkin Elmer). Data was analyzed in similar fashion as above using the normalized ratio of the 665 to 616 signals multiplied by 10000.
For orientation: In TR-FRET formats the signal depends on donor and acceptor labels being close together.
Molecule `O=C(Nc1nccs1)C(c1ncn2c1C[C@@H](F)C2)n1cc2c(Cl)cc(-c3ccc(CCN4CCC(CO)C4)cc3)c(Cl)c2n1` (mixture of isomers) [Example 52, rac-2-(4,7-Dichloro-6-(4-(2-(3-(hydroxymethyl)pyrrolidin-1-yl)ethyl)phenyl)-2H-indazol-2-yl)-2-((R)-6-fluoro-6,7-dihydro-5H-pyrrolo[1,2-c]imidazol-1-yl)-N-(thiazol-2-yl)acetamide] returned an IC50 of 6 nM. This counts as single-digit nanomolar. In the case of `O=C(Nc1nccs1)C(c1ncn2c1C[C@@H](F)C2)n1cc2c(Cl)cc(-c3ccc(CN4CCC(CO)CC4)cc3)c(Cl)c2n1` (mixture of isomers) [Example 53, rac-2-(4,7-Dichloro-6-(4-04-(hydroxymethyl)piperidin-1-yl)methyl)phenyl)-2H-indazol-2-yl)-2-((R)-6-fluoro-6,7-dihydro-5H-pyrrolo[1,2-c]imidazol-1-yl)-N-(thiazol-2-yl)acetamide] it was 5 nM; in that of `O=C(Nc1nccs1)C(c1ncn2c1C[C@@H](F)C2)n1cc2c(Cl)cc(-c3ccc(CCCN4CCC(O)CC4)cc3)c(Cl)c2n1` (mixture of isomers) [Example 57, rac-2-(4,7-Dichloro-6-(4-(3-(4-hydroxypiperidin-1-yl)propyl)phenyl)-2H-indazol-2-yl)-2-((R)-6-fluoro-6,7-dihydro-5H-pyrrolo[1,2-c]imidazol-1-yl)-N-(thiazol-2-yl)acetamide], 7 nM; in that of `O=C(Nc1nccs1)C(c1ncn2c1C[C@@H](F)C2)n1cc2c(Cl)cc(-c3ccc(CN4CCC(O)CC4)cc3)c(Cl)c2n1` (mixture of isomers) [Example 58, rac-2-(4,7-Dichloro-6-(4-((4-hydroxypiperidin-1-yl)methyl)phenyl)-2H-indazol-2-yl)-2-((R)-6-fluoro-6,7-dihydro-5H-pyrrolo[1,2-c]imidazol-1-yl)-N-(thiazol-2-yl)acetamide], 5 nM. Molecule `O=C(Nc1nccs1)C(c1ncn2c1C[C@@H](F)C2)n1cc2c(Cl)cc(-c3ccc(N4CC(CN5CCC(CO)CC5)C4)cc3)c(Cl)c2n1` (mixture of isomers) [Example 59, rac-2-(4,7-Dichloro-6-(4-(3-((4-(hydroxymethyl)piperidin-1-yl)methyl)azetidinyl)phenyl)-2H-indazol-2-yl)-2-((R)-6-fluoro-6,7-dihydro-5H-pyrrolo[1,2-c]imidazol-1-yl)-N-(thiazol-2-yl)acetamide] came in with a concentration for half-maximal inhibition (IC50) of 5 nM.

`CC(O)C1CCN(CCc2ccc(-c3cc(Cl)c4cn(C(C(=O)Nc5nccs5)c5ncn6c5C[C@@H](F)C6)nc4c3Cl)cc2)CC1` (mixture of isomers) [Example 60, rac-2-(4,7-Dichloro-6-(4-(2-(4-(1-hydroxyethyl)piperidin-1-yl)ethyl)phenyl)-2H-indazol-2-yl)-2-((R)-6-fluoro-6,7-dihydro-5H-pyrrolo[1,2-c]imidazol-1-yl)-N-(thiazol-2-yl)acetamide] had an IC50 of 9 nM. The same measure for `O=C(Nc1nccs1)C(c1ncn2c1C[C@@H](F)C2)n1cc2c(Cl)cc(-c3ccc(N4CCN(CCO)CC4)cc3)c(Cl)c2n1` (mixture of isomers) [Example 61, rac-2-(4,7-Dichloro-6-(4-(4-(2-hydroxyethyl)piperazin-1-yl)phenyl)-2H-indazol-2-yl)-2-((R)-6-fluoro-6,7-dihydro-5H-pyrrolo[1,2-c]imidazol-1-yl)-N-(thiazol-2-yl)acetamide]: 3 nM; for `O=C(Nc1nccs1)C(c1ncn2c1C[C@@H](F)C2)n1cc2c(Cl)cc(-c3ccc(CN4CC5(CC(O)C5)C4)cc3)c(Cl)c2n1` (mixture of isomers) [Example 62, rac-2-(4,7-Dichloro-6-(4-((6-hydroxy-2-azaspiro[3.3]heptan-2-yl)methyl)phenyl)-2H-indazol-2-yl)-2-((R)-6-fluoro-6,7-dihydro-5H-pyrrolo[1,2-c]imidazol-1-yl)-N-(thiazol-2-yl)acetamide]: 8 nM; for `O=C(Nc1nccs1)C(c1ncn2c1C[C@@H](F)C2)n1cc2c(Cl)cc(-c3ccc(CN4CC5(COC5)C4)cc3)c(Cl)c2n1` (mixture of isomers) [Example 63, rac-2-(6-(4-((2-Oxa-6-azaspiro[3.3]heptan-6-yl)methyl)phenyl)-4,7-dichloro-2H-indazol-2-yl)-2-((R)-6-fluoro-6,7-dihydro-5H-pyrrolo[1,2-c]imidazol-1-yl)-N-(thiazol-2-yl)acetamide]: 5 nM. In the case of `O=C(Nc1nccs1)C(c1ncn2c1C[C@@H](F)C2)n1cc2c(Cl)cc(-c3ccc(CCN4CCC(O)CC4)cc3)c(Cl)c2n1` (mixture of isomers) [Example 64, rac-2-(4,7-Dichloro-6-(4-(2-(4-hydroxypiperidin-1-yl)ethyl)phenyl)-2H-indazol-2-yl)-2-((R)-6-fluoro-6,7-dihydro-5H-pyrrolo[1,2-c]imidazol-1-yl)-N-(thiazol-2-yl)acetamide], half-maximal inhibition (IC50) required 7 nM. The IC50 values of the last two molecules are within 1.5-fold of each other. In the case of `O=C(Nc1nccs1)C(c1ncn2c1C[C@@H](F)C2)n1cc2c(Cl)cc(-c3ccc(N4CCN(C5CC(O)C5)CC4)cc3)c(Cl)c2n1` (mixture of isomers) [Example 66, rac-2-(4,7-Dichloro-6-(4-(4-(3-hydroxycyclobutyl)piperazin-1-yl)phenyl)-2H-indazol-2-yl)-2-((R)-6-fluoro-6,7-dihydro-5H-pyrrolo[1,2-c]imidazol-1-yl)-N-(thiazol-2-yl)acetamide] it was 2 nM; in that of `O=C(Nc1nccs1)C(c1ncn2c1C[C@@H](F)C2)n1cc2c(Cl)cc(-c3ccc(N4CCOC(CO)C4)cc3)c(Cl)c2n1` (mixture of isomers) [Example 67, rac-2-(4,7-Dichloro-6-(4-(2-(hydroxymethyl)morpholino)phenyl)-2H-indazol-2-yl)-2-((R)-6-fluoro-6,7-dihydro-5H-pyrrolo[1,2-c]imidazol-1-yl)-N-(thiazol-2-yl)acetamide], 3 nM; in that of `O=C(Nc1nccs1)C(c1ncn2c1C[C@@H](F)C2)n1cc2c(Cl)cc(-c3ccc(OCCN4CCC(CO)CC4)cc3)c(Cl)c2n1` (mixture of isomers) [Example 68, rac-2-(4,7-Dichloro-6-(4-(2-(4-(hydroxymethyl)piperidin-1-yl)ethoxy)phenyl)-2H-indazol-2-yl)-2-((R)-6-fluoro-6,7-dihydro-5H-pyrrolo[1,2-c]imidazol-1-yl)-N-(thiazol-2-yl)acetamide], 4 nM. In the case of `O=C(Nc1nccs1)C(c1ncn2c1C[C@@H](F)C2)n1cc2c(Cl)cc(-c3ccc(CCN4CCC(O)C4)cc3)c(Cl)c2n1` (mixture of isomers) [Example 70, rac-2-(4,7-Dichloro-6-(4-(2-(3-hydroxypyrrolidin-1-yl)ethyl)phenyl)-2H-indazol-2-yl) ((R)-6-fluoro-6,7-dihydro-5H-pyrrolo[1,2-c]imidazol-1-yl)-N-(thiazol-2-yl)acetamide] it was 8 nM; in that of `CC(O)CN1CCN(c2ccc(-c3cc(Cl)c4cn(C(C(=O)Nc5nccs5)c5ncn6c5C[C@@H](F)C6)nc4c3Cl)cc2)CC1` (mixture of isomers) [Example 71, rac-2-(4,7-Dichloro-6-(4-(4-(2-hydroxypropyl)piperazin-1-yl)phenyl)-2H-indazol-2-yl)-2-((R)-6-fluoro-6,7-dihydro-5H-pyrrolo[1,2-c]imidazol-1-yl)-N-(thiazol-2-yl)acetamide], 8 nM. For the molecule `O=C(Nc1nccs1)C(c1ncn2c1C[C@@H](F)C2)n1cc2c(Cl)cc(-c3ccc(N4CCN5CCC4C5)cc3)c(Cl)c2n1` (mixture of isomers) [Example 72, rac-2-(6-(4-(1,4-Diazabicyclo[3.2.1]octan-4-yl)phenyl)-4,7-dichloro-2H-indazol-2-yl)-2-((R)-6-fluoro-6,7-dihydro-5H-pyrrolo[1,2-c]imidazol-1-yl)-N-(thiazol-2-yl)acetamide], the 50% inhibitory concentration (IC50) was 5 nM.

Values taken from patent publication US12479849B2, “EGFR inhibitors for the treatment of cancer” (Hoffmann-La Roche Inc., priority 2019, dated 2025).
